For series [1], the target named is T1, Cytoglobin (Cygb) (Homo sapiens, UniProt Q8WWM9). Nature of the series: LC-MS/MS of lipid oxidation products by Cygb/H2O2. It is filed as biochemical.
The target in series [2] is Cytoglobin (Cygb), wild type (Homo sapiens, UniProt Q8WWM9). The series can be described thus: differential absorbance spectroscopy titration, […] fit. In kind it is binding.
The target in series [3] is Cytoglobin (Cygb Δ1-15Δ174-190) (Homo sapiens, UniProt Q8WWM9, Δ1-15Δ174-190). Described as above. It is filed as binding.
Series [4] has as its target T1, Cytoglobin (Cygb). It is filed as biochemical. To be noted: cygb:lipid liposomes.

T1 sequence (Q8WWM9 whole entry): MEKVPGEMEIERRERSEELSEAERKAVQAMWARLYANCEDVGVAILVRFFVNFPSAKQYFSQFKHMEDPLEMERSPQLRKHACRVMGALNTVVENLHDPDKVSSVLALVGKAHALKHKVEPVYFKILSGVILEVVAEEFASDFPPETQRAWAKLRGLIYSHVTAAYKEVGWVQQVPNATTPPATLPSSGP
Cytoglobin (Cygb Δ1-15Δ174-190), sequence (Q8WWM9 16-173, stated change not applied): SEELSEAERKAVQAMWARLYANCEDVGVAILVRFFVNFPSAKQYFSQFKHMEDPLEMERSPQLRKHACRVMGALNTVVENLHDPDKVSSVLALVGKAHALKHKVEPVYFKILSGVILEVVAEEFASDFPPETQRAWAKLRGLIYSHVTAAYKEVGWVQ
Cytoglobin (Cygb), wild type, sequence (Q8WWM9 whole entry): as the sequence (Q8WWM9 whole entry) above

As for `CCCCC/C=C\C/C=C\C/C=C\C/C=C\CCCC(=O)O[C@H](COC(=O)CCCCCCCCCCCCCCCCC)COP(=O)(O)O` [SAPA, 1-stearoyl-2-arachidonoyl-sn-glycero-3-phosphate], in series [1], the “LC-MS/MS of lipid oxidation products by Cygb/H2O2” value was 5.6 ± 0.1 picomoles of oxidation products. For the compound `CCCCCCCC/C=C\CCCCCCCC(=O)O` [OA, oleic acid], the values for the dissociation constant (Kd) in series [2] and in series [3] were 2300 ± 1000 nM and 3000 ± 1800 nM, respectively. As to `CCCCCCCC/C=C\CCCCCCCC(=O)OC[C@H](COP(=O)(O)O)OC(=O)CCCCCCC/C=C\CCCCCCCC` [DOPA, 1,2-dioleoyl-sn-glycero-3-phosphate], in series [4], the “activation of peroxidase activity, Amplex Red oxidation, 1:25 Cygb:lipid liposom” value is reported as 1.6 fold increase in rate.

These data come from article PMC4821708 (Biochimica et biophysica acta, 2016).
